Here are results for eleven compounds from ChEMBL document CHEMBL4145516, “Rational design of novel TLR4 ligands by in silico screening and their functional and structural characterization in vitro” (2018).

Molecules are shown by their SMILES. Activity calls are given as the source filed them. The rule behind the calls is not given here.

Assay [1] deals with PBMC. Put plainly: Immunostimulatory activity in human PBMC assessed as increase in IL-6 release at 10 uM after 24 hrs by ELISA. Type of assay: functional. On the technique in general: ELISA stands for enzyme-linked immunosorbent assay.
Assay [2] deals with Toll-like receptor 4 (Homo sapiens) (UniProt O00206). Put plainly: Agonist activity at human TLR4 expressed in HEK-blue cells coexpressing MD2 at 0.99 10^-5M by SEAP reporter gene assay. Type of assay: cell-based. On the technique in general: In a reporter assay the amount or activity of a reporter protein is the signal.
Chain of Toll-like receptor 4 (Homo sapiens) (O00206 whole entry): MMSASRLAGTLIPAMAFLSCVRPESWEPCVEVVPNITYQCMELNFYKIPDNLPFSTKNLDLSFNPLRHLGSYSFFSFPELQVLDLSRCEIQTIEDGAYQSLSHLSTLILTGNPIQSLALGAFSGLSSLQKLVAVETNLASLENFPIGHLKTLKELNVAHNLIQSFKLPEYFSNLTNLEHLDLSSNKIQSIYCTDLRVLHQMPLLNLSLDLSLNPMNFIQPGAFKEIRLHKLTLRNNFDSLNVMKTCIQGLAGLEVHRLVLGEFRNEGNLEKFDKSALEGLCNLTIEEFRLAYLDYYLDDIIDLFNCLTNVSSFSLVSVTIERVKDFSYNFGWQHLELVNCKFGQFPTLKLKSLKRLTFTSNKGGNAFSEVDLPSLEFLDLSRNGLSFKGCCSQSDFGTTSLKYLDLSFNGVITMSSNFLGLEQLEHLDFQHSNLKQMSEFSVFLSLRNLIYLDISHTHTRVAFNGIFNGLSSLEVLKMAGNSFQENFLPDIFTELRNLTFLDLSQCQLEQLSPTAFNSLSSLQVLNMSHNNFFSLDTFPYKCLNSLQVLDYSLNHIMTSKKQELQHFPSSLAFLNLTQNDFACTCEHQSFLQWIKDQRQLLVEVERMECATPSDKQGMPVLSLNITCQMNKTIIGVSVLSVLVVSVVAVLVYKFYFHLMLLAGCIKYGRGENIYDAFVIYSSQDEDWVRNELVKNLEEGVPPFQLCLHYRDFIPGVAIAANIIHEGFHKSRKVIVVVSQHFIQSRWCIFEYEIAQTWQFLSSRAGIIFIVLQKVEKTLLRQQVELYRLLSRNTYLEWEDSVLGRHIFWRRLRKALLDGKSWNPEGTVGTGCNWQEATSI
Assay [3] has the same target. Put plainly: Agonist activity at human TLR4 expressed in HEK-blue cells coexpressing MD2 at 1.06 10^-5M by SEAP reporter gene assay relative to MPLA. Type of assay: cell-based.
The target is the same in assay [4]. Put plainly: Agonist activity at human TLR4 expressed in HEK-blue cells coexpressing MD2 at 1.11 10^-5M by SEAP reporter gene assay relative to MPLA. Format: cell-based.
Assay [5] has the same target. Put plainly: Agonist activity at human TLR4 expressed in HEK-blue cells coexpressing MD2 at 1.11 10^-5M by SEAP reporter gene assay. Type of assay: cell-based.
For assay [6] the target is unchanged. Put plainly: Agonist activity at human TLR4 expressed in HEK-blue cells coexpressing MD2 at 1.15 10^-5M by SEAP reporter gene assay. Format: cell-based.
For assay [7] the target is unchanged. Put plainly: Agonist activity at human TLR4 expressed in HEK-blue cells coexpressing MD2 at 1.07 10^-5M by SEAP reporter gene assay relative to MPLA. Format: cell-based.
The target is the same in assay [8]. Put plainly: Agonist activity at human TLR4 expressed in HEK-blue cells coexpressing MD2 at 1.07 10^-5M by SEAP reporter gene assay. Type of assay: cell-based.
Assay [9] shares this target. Put plainly: Agonist activity at human TLR4 expressed in HEK-blue cells coexpressing MD2 at 500 ng/ml by SEAP reporter gene assay relative to MPLA. Type of assay: cell-based.

Consider `O=C(CCN1C(=O)C2C3c4ccccc4C(c4ccccc43)C2C1=O)NC1CCCCC1` (stereo not drawn), for which the result in assay [1] was inactive. As for `O=C(CCN1C(=O)C2C3c4ccccc4C(c4ccccc43)C2C1=O)NCc1ccc(Cl)c(Cl)c1` (stereo not drawn), the outcome in assay [2] and in assay [1] was inactive.

Turning to `O=C(CCN1C(=O)C2C3c4ccccc4C(c4ccccc43)C2C1=O)NCc1ccc(Cl)cc1` (stereo not drawn), the Activity in [3] stood at 50%; in [1] it was 0.725 pg/mL. Turning to `O=C(CCN1C(=O)C2C3c4ccccc4C(c4ccccc43)C2C1=O)NC1CCCCCCC1` (stereo not drawn), in assay [1], the Activity is 212.56 pg/mL. On the same count and under the same terms, the value for `O=C(CCN1C(=O)C2C3c4ccccc4C(c4ccccc43)C2C1=O)NC1CCCCCC1` (stereo not drawn) was 7.3 pg/mL. For `Cc1ccc(CNC(=O)CCN2C(=O)C3C4c5ccccc5C(c5ccccc54)C3C2=O)cc1` (stereo not drawn), the Activity in [4] stood at 50%; in [1] it was 5.76 pg/mL. For the same compound, the outcome in assay [5] was Active. Consider `CC(C)CNC(=O)CCN1C(=O)C2C3c4ccccc4C(c4ccccc43)C2C1=O` (stereo not drawn), for which the outcome in assay [1] was inactive. On to `O=C(CCN1C(=O)C2C3c4ccccc4C(c4ccccc43)C2C1=O)NCc1ccccc1` (stereo not drawn), for which the outcome in assay [6] and in assay [1] was inactive. For the compound `COc1ccc(CNC(=O)CCN2C(=O)C3C4c5ccccc5C(c5ccccc54)C3C2=O)cc1` (stereo not drawn), the Activity in [7] was 50%; in [1] it was 219.76 pg/mL. The outcome in [8] was Active. With `CC(=O)Nc1ccc(-c2ccc(N3C(=O)C4C5c6ccccc6C(c6ccccc65)C4C3=O)cc2)cc1` (stereo not drawn), the Activity in assay [9] was 30%. Consider `CC(C)(C)NC(=O)CCN1C(=O)C2C3c4ccccc4C(c4ccccc43)C2C1=O` (stereo not drawn), for which the outcome in assay [1] was inactive.
